Experimental data as given in patent US9604933B2, “Pyrazolochalcones as potential anticancer agents” (COUNCIL OF SCIENTIFIC AND INDUSTRIAL RESEARCH, priority 2013, dated 2017).
Like-named read-outs stand apart in the source and are kept apart here.

Assays:
MOLT-4 = test: NCI SRB cytotoxicity, leukemia MOLT-4; format: cell-based; conditions: Homo sapiens, 48 h exposure
Procedure: (§1) The pyrazolochalcones (7e, 8e, 10e, 11e, 12e, 13e and 8f) have been tested against fifty nine human tumor cell lines derived from nine cancer types (leukemia, non-small cell lung cancer, colon cancer, CNS cancer, melanoma, ovarian cancer, renal cancer, prostate cancer and breast cancer) as per the NCI protocol. For each compound, dose response curves for individual cell lines have been measured at a minimum of five concentrations at 10 fold dilutions. A protocol of 48 h continuous drug exposure has been used, and a sulforhodamine B (SRB) protein assay has been used to estimate cell viability or growth. The concentration for 50% cell growth inhibition (GI50), 50% cell death (LC50, 50% growth) and total cell growth inhibition (TGI, 0% growth) values were tabulated (Table-1). DMSO was used as control to calculate the values of GI50, LC50 and TGI. The compounds 7e, 8e, 10e, 11e, 12e, 13e and 8f has been evaluated for their in vitro cytotoxicity in […] cell lines from nine human cancer types of leukemia (K-562, SR), non-small cell lung (Hop-62, NCI-H226, NCI-H522), colon (HCT-116, HCT-15, HCC-2998), CNS (SF-539), melanoma (SK-MEL-5, UACC-62, M14), ovarian (IGROV1), renal (A498), prostate (PC3) and breast (BT-549, MDA-MB-435, HS578T) origin. The results are expressed as percent of cell growth determined relative to that of untreated control cells (Table 2).

RPMI-8226 = test: NCI SRB cytotoxicity, leukemia RPMI-8226; format: cell-based; conditions: Homo sapiens, 48 h exposure
Procedure: as §1

A549/ATCC = test: NCI SRB cytotoxicity, non-small cell lung A549/ATCC; format: cell-based; conditions: Homo sapiens, 48 h exposure
Procedure: as §1

HOP-62 = test: NCI SRB cytotoxicity, non-small cell lung HOP-62; format: cell-based; conditions: Homo sapiens, 48 h exposure
Procedure: as §1

NCIH322M = test: NCI SRB cytotoxicity, non-small cell lung NCIH322M; format: cell-based; conditions: Homo sapiens, NCI-H322M, 48 h exposure
Procedure: as §1

NCI-H522 = test: NCI SRB cytotoxicity, non-small cell lung NCI-H522; format: cell-based; conditions: Homo sapiens, 48 h exposure
Procedure: as §1

COLO-205 = test: NCI SRB cytotoxicity, colon COLO-205; format: cell-based; conditions: Homo sapiens, 48 h exposure
Procedure: as §1

HCC-2998 = test: NCI SRB cytotoxicity, colon HCC-2998; format: cell-based; conditions: Homo sapiens, 48 h exposure
Procedure: as §1

HCT-116 = test: NCI SRB cytotoxicity, colon HCT-116; format: cell-based; conditions: Homo sapiens, 48 h exposure
Procedure: as §1

HCT-15 = test: NCI SRB cytotoxicity, colon HCT-15; format: cell-based; conditions: Homo sapiens, 48 h exposure
Procedure: as §1

HT29 = test: NCI SRB cytotoxicity, colon HT29; format: cell-based; conditions: Homo sapiens, HT-29, 48 h exposure
Procedure: as §1

SW-620 = test: NCI SRB cytotoxicity, colon SW-620; format: cell-based; conditions: Homo sapiens, 48 h exposure
Procedure: as §1

SF-268 = test: NCI SRB cytotoxicity, CNS SF-268; format: cell-based; conditions: Homo sapiens, 48 h exposure
Procedure: as §1

SF-539 = test: NCI SRB cytotoxicity, CNS SF-539; format: cell-based; conditions: Homo sapiens, 48 h exposure
Procedure: as §1

MDA-MB-435 [1] = test: NCI SRB cytotoxicity, melanoma MDA-MB-435; format: cell-based; conditions: Homo sapiens, Melanoma panel MDA-MB-435, 48 h exposure
Procedure: as §1

SK-MEL-2 = test: NCI SRB cytotoxicity, melanoma SK-MEL-2; format: cell-based; conditions: Homo sapiens, 48 h exposure
Procedure: as §1

UACC-62 = test: NCI SRB cytotoxicity, melanoma UACC-62; format: cell-based; conditions: Homo sapiens, 48 h exposure
Procedure: as §1

OVCAR-3 = test: NCI SRB cytotoxicity, ovarian OVCAR-3; format: cell-based; conditions: Homo sapiens, 48 h exposure
Procedure: as §1

OVCAR-8 = test: NCI SRB cytotoxicity, ovarian OVCAR-8; format: cell-based; conditions: Homo sapiens, 48 h exposure
Procedure: as §1

NCI/ADR-RES = test: NCI SRB cytotoxicity, ovarian NCI/ADR-RES; format: cell-based; conditions: Homo sapiens, 48 h exposure
Procedure: as §1

ACHN = test: NCI SRB cytotoxicity, renal ACHN; format: cell-based; conditions: Homo sapiens, 48 h exposure
Procedure: as §1

CAKI-1 = test: NCI SRB cytotoxicity, renal CAKI-1; format: cell-based; conditions: Homo sapiens, 48 h exposure
Procedure: as §1

TK-10 = test: NCI SRB cytotoxicity, renal TK-10; format: cell-based; conditions: Homo sapiens, 48 h exposure
Procedure: as §1

PC-3 = test: NCI SRB cytotoxicity, prostate PC-3; format: cell-based; conditions: Homo sapiens, 48 h exposure
Procedure: as §1

MDA-MB-231/ATCC = test: NCI SRB cytotoxicity, breast MDA-MB-231/ATCC; format: cell-based; conditions: Homo sapiens, 48 h exposure
Procedure: as §1

HS 578T = test: NCI SRB cytotoxicity, breast HS 578T; format: cell-based; conditions: Homo sapiens, 48 h exposure
Procedure: as §1

MDA-MB-435 [2] = test: NCI SRB cytotoxicity, breast panel MDA-MB-435; format: cell-based; conditions: Homo sapiens, 48 h exposure
Procedure: as §1

Leukemia = test: NCI SRB cytotoxicity, leukemia panel average; format: cell-based, human; conditions: average of cell lines
Procedure: as §1
(§2) Each cancer type represents the average of six to eight different cancer cell lines.

Colon = test: NCI SRB cytotoxicity, colon panel average; format: cell-based, human; conditions: average of cell lines
Procedure: as §1, §2

CNS = test: NCI SRB cytotoxicity, CNS panel average; format: cell-based, human; conditions: average of cell lines
Procedure: as §1, §2

Ovarian = test: NCI SRB cytotoxicity, ovarian panel average; format: cell-based, human; conditions: average of cell lines
Procedure: as §1, §2

Prostate = test: NCI SRB cytotoxicity, prostate panel average; format: cell-based, human; conditions: average of cell lines
Procedure: as §1, §2

Breast = test: NCI SRB cytotoxicity, breast panel average; format: cell-based, human; conditions: average of cell lines
Procedure: as §1, §2

human tumor cell lines = test: NCI SRB cytotoxicity, all fifty nine human tumor cell lines; format: cell-based; design: Log10 TGI mean graph midpoint (MG_MID): unit not given here; conditions: for GI50: Homo sapiens
Procedure: as §1
The mean graph midpoint values of Log10 TGI and Log10 LC50 as well as Log10 GI50 for compounds 7e, 8e, 10e, 11e, 12e, 13e and 8f is listed in Table-3. […] The mean graph mid points of Log10 TGI and Log10, LC50 have shown similar pattern to the log10 GI50 mean graph mid points.

[3] = Homo sapiens, read-out: Log10 GI50 (concentration in mol/L causing 50% growth inhibition) (converted)
[4] = Homo sapiens, read-out: Log10 LC50 (concentration in mol/L causing 50% cell death) (converted)

Question: With COc1cc(C(=O)/C=C/c2cc(-c3cc(OC)c(OC)c(OC)c3)n[nH]2)cc(OC)c1OC [10e, (E)-1-(3,4,5-trimethoxyphenyl)-3-(3-(3,4,5-trimethoxyphenyl)-1H-pyrazol-5-yl)prop-2-en-1-one] as the compound, how does the GI50 (MOLT-4) read?
Answer: 2320 nM

Question: And the GI50 (RPMI-8226)?
Answer: 310 nM

Question: And the GI50 (A549/ATCC)?
Answer: 2720 nM

Question: And the GI50 (HOP-62)?
Answer: 1460 nM

Question: And the GI50 (NCIH322M)?
Answer: 2000 nM

Question: And the GI50 (NCI-H522)?
Answer: 520 nM

Question: And the GI50 (COLO-205)?
Answer: 1750 nM

Question: And the GI50 (HCC-2998)?
Answer: 1830 nM

Question: What about the GI50 (HCT-116) of the same compound?
Answer: 1310 nM

Question: And the GI50 (HCT-15)?
Answer: 1500 nM

Question: What about the GI50 (HT29) of the same compound?
Answer: 1790 nM

Question: What about the GI50 (SW-620) of the same compound?
Answer: 1590 nM

Question: What about the GI50 (SF-268) of the same compound?
Answer: 1940 nM

Question: What about the GI50 (SF-539) of the same compound?
Answer: 1290 nM

Question: And the GI50 (MDA-MB-435 [1])?
Answer: 1490 nM

Question: And the GI50 (SK-MEL-2)?
Answer: 1960 nM

Question: And the GI50 (UACC-62)?
Answer: 1780 nM

Question: What about the GI50 (OVCAR-3) of the same compound?
Answer: 1750 nM

Question: What about the GI50 (OVCAR-8) of the same compound?
Answer: 1580 nM

Question: What about the GI50 (NCI/ADR-RES) of the same compound?
Answer: 3470 nM

Question: And the GI50 (ACHN)?
Answer: 1620 nM

Question: And the GI50 (CAKI-1)?
Answer: 2580 nM

Question: What about the GI50 (TK-10) of the same compound?
Answer: 1460 nM

Question: What about the GI50 (PC-3) of the same compound?
Answer: 1470 nM

Question: And the GI50 (MDA-MB-231/ATCC)?
Answer: 1520 nM

Question: What about the GI50 (HS 578T) of the same compound?
Answer: 2680 nM

Question: What about the GI50 (MDA-MB-435 [2]) of the same compound?
Answer: 1150 nM

Question: What about the GI50 (Leukemia; [3]) of the same compound?
Answer: 1200 nM

Question: What about the CC50 (Leukemia; [4]) of the same compound?
Answer: 0.0001 mol/L

Question: What about the “Log10 TGI (concentration in mol/L causing total growth inhibition (0% growth))” value (Leukemia) of the same compound?
Answer: −4.80 mol/L

Question: What about the GI50 (Colon; [3]) of the same compound?
Answer: 1620 nM

Question: What about the LC50 (Colon; [4]) of the same compound?
Answer: 6030 nM

Question: What about the “Log10 TGI (concentration in mol/L causing total growth inhibition)” value (Colon) of the same compound?
Answer: −5.50 mol/L

Question: What about the GI50 (CNS; [3]) of the same compound?
Answer: 1620 nM

Question: And the LC50 (CNS; [4])?
Answer: 7940 nM

Question: What about the “Log10 TGI (concentration in mol/L causing total growth inhibition (0% growth))” value (CNS) of the same compound?
Answer: −5.46 mol/L

Question: And the GI50 (Ovarian; [3])?
Answer: 2190 nM

Question: What about the CC50 (Ovarian; [4]) of the same compound?
Answer: 14500 nM

Question: And the “Log10 TGI (concentration in mol/L causing total growth inhibition (0% growth))” value (Ovarian)?
Answer: −5.23 mol/L

Question: What about the GI50 (Prostate; [3]) of the same compound?
Answer: 1480 nM

Question: What about the CC50 (Prostate; [4]) of the same compound?
Answer: 7410 nM

Question: And the “Log10 TGI (concentration in mol/L causing total growth inhibition (0% growth))” value (Prostate)?
Answer: −5.48 mol/L

Question: What about the GI50 (Breast; [3]) of the same compound?
Answer: 1350 nM

Question: What about the CC50 (Breast; [4]) of the same compound?
Answer: 10000 nM

Question: And the “Log10 TGI (concentration in mol/L causing total growth inhibition (0% growth))” value (Breast)?
Answer: −5.35 mol/L

Question: And the GI50 (human tumor cell lines; across fifty nine cell lines in nine cell panels, read-out: GI50 value range)?
Answer: 180 to 29200 nM

Question: What about the GI50 (human tumor cell lines; against human tumor cell lines, read-out: Log10 GI50 mean graph midpoint (MG_MID) (converted)) of the same compound?
Answer: 1550 nM

Question: What about the cytotoxicity (human tumor cell lines; against cancer cell lines, in words) of the same compound?
Answer: significant cytotoxicity

Question: And the “Log10 TGI mean graph midpoint (MG_MID)” value (human tumor cell lines; against human tumor cell lines)?
Answer: −5.36

Question: And the LC50 (human tumor cell lines; against human tumor cell lines, read-out: Log10 LC50 mean graph midpoint (MG_MID) (converted))?
Answer: 11500 nM
